# Test results from PubChem BioAssay AID743102 (Vanderbilt Specialized Chemistry Center, 2013).
# Activity calls are given as the source filed them.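 How the source made its calls: active means human M5 calcium response above 60% of the acetylcholine maximum, marking a potentiator (some results past the limit were not filed as active); inactive means the rest.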
# Biological target: Muscarinic acetylcholine receptor M5 (Homo sapiens) (UniProt P08912)
# Test: human M5 potentiators of ACh EC20 response – cell-based, CHO-K1 hM5, Fluo-4 calcium flux, concentration-response, confirmation (AID 743102)
# Details: ACh EC20 PAM
# Chain of Muscarinic acetylcholine receptor M5 (Homo sapiens) (P08912 whole entry, looked up): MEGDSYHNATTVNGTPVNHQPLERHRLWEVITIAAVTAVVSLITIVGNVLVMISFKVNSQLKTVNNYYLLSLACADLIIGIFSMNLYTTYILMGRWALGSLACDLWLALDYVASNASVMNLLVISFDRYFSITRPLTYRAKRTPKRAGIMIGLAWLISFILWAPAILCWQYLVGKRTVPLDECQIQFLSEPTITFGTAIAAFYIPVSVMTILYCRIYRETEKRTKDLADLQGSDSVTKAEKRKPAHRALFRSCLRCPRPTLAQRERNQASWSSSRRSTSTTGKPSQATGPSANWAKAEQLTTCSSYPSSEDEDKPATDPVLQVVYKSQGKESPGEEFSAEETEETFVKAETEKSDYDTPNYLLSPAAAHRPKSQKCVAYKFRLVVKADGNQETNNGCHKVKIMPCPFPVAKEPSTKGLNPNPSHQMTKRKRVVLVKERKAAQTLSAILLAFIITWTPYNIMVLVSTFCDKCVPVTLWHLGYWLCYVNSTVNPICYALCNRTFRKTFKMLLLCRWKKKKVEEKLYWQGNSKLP
row,SMILES,EC50 [µM]
1,CCN(Cc1ccccc1F)C(=O)C1CCN(S(=O)(=O)c2ccc3cn[nH]c3c2)CC1,2.08
2,CCN(Cc1cccc(F)c1)C(=O)C1CCN(S(=O)(=O)c2ccc3cn[nH]c3c2)CC1,1.27
3,CCN(Cc1ccccc1)C(=O)C1CCN(S(=O)(=O)c2cccc(OC(F)F)c2)CC1,3.98
4,CCN(Cc1ccccc1C(F)(F)F)C(=O)C1CCN(S(=O)(=O)c2ccc3cn[nH]c3c2)CC1,0.42
5,CCN(Cc1ccccc1C(F)(F)F)C(=O)C1CCN(S(=O)(=O)c2ccc3[nH]ncc3c2)CC1,0.23
6,CCN(Cc1ccccc1)C(=O)C1CCN(S(=O)(=O)c2ccc3[nH]ncc3c2)CC1,1.66
7,CCN(Cc1cccc(C)c1)C(=O)C1CCN(S(=O)(=O)c2ccc3cn[nH]c3c2)CC1,1
8,CCN(C(=O)C1CCN(S(=O)(=O)c2ccc3[nH]ncc3c2)CC1)[C@H](C)c1ccccc1,0.77
9,CCN(Cc1ccccc1C(F)(F)F)C(=O)C1(F)CCN(S(=O)(=O)c2ccc3[nH]ncc3c2)CC1,0.43
10,CCN(Cc1ccccc1)C(=O)C1CCN(S(=O)(=O)c2cccc(OC)c2)CC1,3.25
11,CCN(Cc1ccccc1)C(=O)C1CCN(S(=O)(=O)c2ccc(Br)cc2)CC1,3.92
12,CCN(Cc1ccccc1)C(=O)C1CCN(S(=O)(=O)c2ccc(C)cc2)CC1,5.45
13,CCN(C(=O)C1CCN(S(=O)(=O)c2ccc3occc3c2)CC1)[C@H](C)c1ccccc1,0.92
14,CCN(Cc1ccccc1)C(=O)C1CCN(S(=O)(=O)c2ccc(C)s2)CC1,7.48
15,CCCN(Cc1ccccc1C(F)(F)F)C(=O)C1CCN(S(=O)(=O)c2ccc3[nH]ncc3c2)CC1,0.16
16,CCc1ccc(S(=O)(=O)N2CCC(C(=O)N(CC)Cc3ccccc3)CC2)cc1,3.75
17,CCN(Cc1cccc(OC)c1)C(=O)C1CCN(S(=O)(=O)c2ccc3cn[nH]c3c2)CC1,2.69
18,CCN(Cc1ccccc1)C(=O)C1CCN(S(=O)(=O)c2ccc3occc3c2)CC1,1.4
19,CCN(Cc1ccccc1)C(=O)C1CCN(S(=O)(=O)c2ccc(OC(F)F)cc2)CC1,5.05
20,CCN(Cc1ccccc1)C(=O)C1CCN(S(=O)(=O)c2ccc(C(C)=O)cc2)CC1,6.55
21,CCN(C(=O)C1CCN(S(=O)(=O)c2ccc3c(c2)CCO3)CC1)[C@H](C)c1ccccc1,0.98
22,CCN(Cc1ccccc1OC)C(=O)C1CCN(S(=O)(=O)c2ccc3cn[nH]c3c2)CC1,7.09
23,CCN(Cc1ccccc1)C(=O)C1CCN(S(=O)(=O)c2ccc3nsnc3c2)CC1,5.23
24,CCN(C(=O)C1CCN(S(=O)(=O)c2ccc3[nH]ncc3c2)CC1)[C@H](C)c1ccccc1C(F)(F)F,4.06
25,CCN(C(=O)C1CCN(S(=O)(=O)c2ccc3c(c2)CCC3)CC1)[C@H](C)c1ccccc1,0.76
26,CCN(Cc1ccccc1C(F)(F)F)C(=O)C1CCN(S(=O)(=O)c2ccc(-n3cccn3)cc2)CC1,1.26
27,[2H]C([2H])(C)N(C(=O)C1CCN(S(=O)(=O)c2ccc3cn[nH]c3c2)CC1)[C@H](C)c1ccccc1,0.53

# Now from value to compound:
row,EC50 [µM],SMILES
1,3.57,CCN(Cc1ccccc1)C(=O)C1CCN(S(=O)(=O)c2ccc(OC)cc2)CC1
2,12.3,CCN(Cc1ccccc1)C(=O)C1CCN(S(=O)(=O)c2ccc3c(c2)OCCO3)CC1
3,1.32,O=C(C1CCN(S(=O)(=O)c2ccc3[nH]ncc3c2)CC1)N(CCF)Cc1ccccc1C(F)(F)F
4,3.23,CCCc1ccc(S(=O)(=O)N2CCC(C(=O)N(CC)Cc3ccccc3)CC2)cc1
5,6.1,CCN(Cc1ccccc1)C(=O)C1CCN(S(=O)(=O)c2ccc(OC(F)(F)F)cc2)CC1
6,7.02,CCN(Cc1ccccc1C#N)C(=O)C1CCN(S(=O)(=O)c2ccc3cn[nH]c3c2)CC1
7,3.43,CCN(Cc1ccccc1OC(F)(F)F)C(=O)C1CCN(S(=O)(=O)c2ccc3cn[nH]c3c2)CC1
8,0.7,CCN(C(=O)C1CCN(S(=O)(=O)c2ccc(-n3cccn3)cc2)CC1)[C@H](C)c1ccccc1
9,4.81,CCN(Cc1ccccc1)C(=O)C1CCN(S(=O)(=O)c2cccc(Cl)c2)CC1
10,0.43,CCN(Cc1ccccc1Cl)C(=O)C1CCN(S(=O)(=O)c2ccc3cn[nH]c3c2)CC1
11,1.08,CCN(C(=O)C1CCN(S(=O)(=O)c2ccc(OC)cc2)CC1)[C@H](C)c1ccccc1
12,5.37,CCN(Cc1ccccc1)C(=O)C1CCN(S(=O)(=O)c2ccccc2)CC1
13,0.94,CCN(Cc1ccccc1C)C(=O)C1CCN(S(=O)(=O)c2ccc3cn[nH]c3c2)CC1
14,2.09,CCN(Cc1ccccc1)C(=O)C1CCN(S(=O)(=O)c2ccc3cn[nH]c3c2)CC1
15,0.34,CCN(Cc1ccccc1Cl)C(=O)C1CCN(S(=O)(=O)c2ccc3[nH]ncc3c2)CC1
16,0.83,CCN(C(=O)C1CCN(S(=O)(=O)c2ccc3cn[nH]c3c2)CC1)[C@H](C)c1ccccc1
17,2.54,CCN(C(=O)C1CCN(S(=O)(=O)c2cc(F)c(F)c(F)c2)CC1)[C@H](C)c1ccccc1
18,1.67,CCN(Cc1cccc(Cl)c1)C(=O)C1CCN(S(=O)(=O)c2ccc3cn[nH]c3c2)CC1
19,1.86,C=CCN(Cc1ccccc1C(F)(F)F)C(=O)C1CCN(S(=O)(=O)c2ccc3[nH]ncc3c2)CC1

# Same assay, conditions: ACh EC20 PAM, at 30 µM (top of the series)
row,SMILES,% ACh max response
1,CCN(Cc1ccccc1)C(=O)C1CCN(S(C)(=O)=O)CC1,inactive
2,CCN(C(=O)Cc1ccccc1)C1CCN(S(=O)(=O)c2ccc3c(c2)OCCO3)CC1,inactive
3,CCN(Cc1ccccc1C(F)(F)F)C(=O)C1CN(S(=O)(=O)c2ccc3[nH]ncc3c2)C1,inactive
4,CN(C)C(=O)C1(Cc2ccccc2)CCN(S(=O)(=O)c2ccc3occc3c2)CC1,inactive
5,O=C(NCc1ccccc1)C1CCN(S(=O)(=O)c2ccc3c(c2)OCCO3)CC1,inactive
6,CCN(C(=O)Cc1ccccc1)C1CCN(S(=O)(=O)c2ccc(OC)cc2)CC1,inactive
7,CCN(Cc1ccccc1)C(=O)[C@H]1CCCN(S(=O)(=O)c2ccc(OC)cc2)C1,inactive
8,CCN(Cc1ccccc1)C(=O)C1CCN(S(=O)(=O)C2CC2)CC1,inactive

# Now from value to compound:
row,% ACh max response,SMILES
1,inactive,CCN(C(=O)C1CCN(S(=O)(=O)c2ccc(OC)cc2)CC1)[C@@H](C)c1ccccc1
2,inactive,O=C(C1CCN(S(=O)(=O)c2ccc3c(c2)OCCO3)CC1)N1CCc2ccccc2C1
3,inactive,O=C1N(Cc2ccccc2)CCC12CCN(S(=O)(=O)c1ccc3c(c1)OCCO3)CC2
4,inactive,CCN(C(=O)C1CCN(S(=O)(=O)c2ccc3occc3c2)CC1)[C@H](C)c1ccccc1C(F)(F)F
5,inactive,CCN(Cc1ccccc1C(F)(F)F)C(=O)C1C2CN(S(=O)(=O)c3ccc4[nH]ncc4c3)CC21 (centres undefined)
6,inactive,C[C@@H](NC(=O)C1CCN(S(=O)(=O)c2ccc3[nH]ncc3c2)CC1)c1ccccc1
7,inactive,COc1ccc(S(=O)(=O)N2CCC(C(=O)NCc3ccccc3)CC2)cc1
8,inactive,O=C(C1CCN(S(=O)(=O)c2ccc3[nH]ncc3c2)CC1)N(Cc1ccccc1C(F)(F)F)C1CC1
9,inactive,COc1ccc(S(=O)(=O)N2CCC3(CCN(Cc4ccccc4)C3=O)CC2)cc1
10,inactive,O=C(C1CCN(S(=O)(=O)c2ccc3cn[nH]c3c2)CC1)N(Cc1ccccc1C(F)(F)F)C1CC1
11,inactive,CCN(Cc1ccccc1)C(=O)[C@@H]1CCCN(S(=O)(=O)c2ccc(OC)cc2)C1

# Same assay, conditions: ACh EC20 PAM, stronger effect = higher value
row,SMILES,% ACh max
1,CCN(Cc1ccccn1)C(=O)C1CCN(S(=O)(=O)c2ccc3cn[nH]c3c2)CC1,inactive
2,CCN(Cc1cccc(C#N)c1)C(=O)C1CCN(S(=O)(=O)c2ccc3cn[nH]c3c2)CC1,inactive
3,CCN(Cc1ccccc1)C(=O)C1CCN(S(=O)(=O)c2ccc(OC)c(OC)c2)CC1,inactive
4,CCN(Cc1cccc(C(F)(F)F)c1)C(=O)C1CCN(S(=O)(=O)c2ccc3cn[nH]c3c2)CC1,inactive
5,CCN(Cc1ccccc1)C(=O)C1CCN(S(=O)(=O)c2cccc(C(F)(F)F)c2)CC1,inactive
6,COc1ccc(S(=O)(=O)N2CCC(C(=O)N(C)Cc3ccccc3)CC2)cc1,inactive
7,CC(C)N(Cc1ccccc1C(F)(F)F)C(=O)C1CCN(S(=O)(=O)c2ccc3[nH]ncc3c2)CC1,inactive
8,CCN(C(=O)C1CCN(S(=O)(=O)c2ccc3cn[nH]c3c2)CC1)C(C)c1ccccn1 (centres undefined),inactive
9,CCN(Cc1ccccc1)C(=O)C1CCN(S(=O)(=O)c2cccc3c2OCCO3)CC1,inactive

# Next, values leading:
row,% ACh max,SMILES
1,inactive,CCN(Cc1ccccc1)C(=O)C1CCN(S(=O)(=O)c2ccc3ncccc3c2)CC1
2,inactive,CCN(Cc1ccccc1)C(=O)C1CCN(S(=O)(=O)c2ccc(N3CCOCC3)nc2)CC1
3,inactive,O=C(C1CCN(S(=O)(=O)c2ccc3[nH]ncc3c2)CC1)N(CCO)Cc1ccccc1C(F)(F)F
4,inactive,CCN(Cc1ccccc1)C(=O)C1CCN(S(=O)(=O)c2ccc(C(F)(F)F)cc2)CC1
5,inactive,CCN(Cc1ccc(OC)cc1)C(=O)C1CCN(S(=O)(=O)c2ccc3cn[nH]c3c2)CC1
